The structures appear in SMILES notation.

From patent US10703756B2, “Pyrrolo[2,3-D]pyrimidinyl, pyrrolo[2,3-B]pyrazinyl, pyrrolo[2,3-B]pyridinyl acrylamides and epoxides thereof” (Pfizer Inc., priority 2015, dated 2020) come the findings set out here.

Assay [1] concerns the target T1, JAK3 enzyme (Homo sapiens, UniProt P52333).
T1 sequence (P52333 1-1124): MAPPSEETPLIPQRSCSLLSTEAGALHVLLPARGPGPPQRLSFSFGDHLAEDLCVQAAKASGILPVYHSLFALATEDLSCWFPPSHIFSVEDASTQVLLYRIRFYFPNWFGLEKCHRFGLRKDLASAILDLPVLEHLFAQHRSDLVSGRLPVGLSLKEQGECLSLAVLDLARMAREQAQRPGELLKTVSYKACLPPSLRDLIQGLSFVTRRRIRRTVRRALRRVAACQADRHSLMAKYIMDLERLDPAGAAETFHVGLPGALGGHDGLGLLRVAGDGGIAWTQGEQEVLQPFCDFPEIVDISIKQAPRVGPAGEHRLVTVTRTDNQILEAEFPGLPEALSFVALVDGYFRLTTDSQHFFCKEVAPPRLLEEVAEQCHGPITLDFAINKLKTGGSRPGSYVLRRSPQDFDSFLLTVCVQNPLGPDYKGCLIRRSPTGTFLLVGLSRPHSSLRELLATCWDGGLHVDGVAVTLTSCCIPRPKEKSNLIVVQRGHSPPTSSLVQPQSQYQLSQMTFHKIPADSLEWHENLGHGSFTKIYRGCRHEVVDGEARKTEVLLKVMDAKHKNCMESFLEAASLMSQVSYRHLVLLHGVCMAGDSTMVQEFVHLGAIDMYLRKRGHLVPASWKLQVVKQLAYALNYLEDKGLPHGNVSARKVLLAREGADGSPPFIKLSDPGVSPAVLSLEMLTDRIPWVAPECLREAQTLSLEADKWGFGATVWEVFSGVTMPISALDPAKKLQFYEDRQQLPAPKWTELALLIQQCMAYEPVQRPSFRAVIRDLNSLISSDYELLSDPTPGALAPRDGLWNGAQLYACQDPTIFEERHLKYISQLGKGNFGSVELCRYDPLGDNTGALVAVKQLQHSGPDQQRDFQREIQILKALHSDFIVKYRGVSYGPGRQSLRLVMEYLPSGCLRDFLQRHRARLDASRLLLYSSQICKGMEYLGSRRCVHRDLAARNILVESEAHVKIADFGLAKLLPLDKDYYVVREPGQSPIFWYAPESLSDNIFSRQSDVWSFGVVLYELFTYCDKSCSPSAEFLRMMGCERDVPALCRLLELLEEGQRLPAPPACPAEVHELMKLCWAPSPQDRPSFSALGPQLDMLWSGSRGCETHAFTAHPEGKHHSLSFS
Put plainly: JAK Caliper Enzyme Assay at 4 μM ATP. The assay is classed as biochemical. In a few lines:
(§1)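 Read-out: microfluidic mobility-shift separation quantifying substrate peptide versus phosphopeptide. Compounds were tested as 11-point half-log dilutions, top 600 μM in DMSO before transfer. Enzyme level and reaction time were tuned for each prep so conversion stayed at 20%-30%.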

Assay [2] concerns the target T1, JAK3 enzyme. Description: JAK Caliper Enzyme Assay at 1 mM ATP. It is filed as biochemical. In a few lines: as §1

The term IC50 denotes the concentration that inhibits the measured activity by half. Lower therefore signals greater potency. In the case of `C=CC(=O)N1CCC(Nc2cnc3[nH]cc(C(=O)NCCC(F)(F)F)c3n2)CC1C` (racemic) [Example 22, Cis-racemic 2-{[1-acryloyl-2-methylpiperidin-4-yl]amino}-N-(3,3,3-trifluoropropyl)-5H-pyrrolo[2,3-b]pyrazine-7-carboxamide], the half-maximal inhibitory concentration (IC50) in assay [1] stood at 1.29 nM; in assay [2], 134 nM.
For `C=CC(=O)N1CC(Nc2cnc3[nH]cc(C(=O)NCC)c3n2)C2(CC2)C1` (stereo not drawn) [Example 244, 2-[(5-acryloyl-5-azaspiro[2.4]hept-7-yl)amino]-N-ethyl-5H-pyrrolo[2,3-b]pyrazine-7-carboxamide] the same measures were 82.3 nM and above 10000 nM.
For `C=CC(=O)N1C[C@@H](C)[C@@H](Nc2cnc3[nH]cc(C(=O)NCCOC)c3n2)C1` (stereo in doubt) [Example 253, 2-[(1-acryloyl-4-methylpyrrolidin-3-yl)amino]-N-(2-methoxyethyl)-5H-pyrrolo[2,3-b]pyrazine-7-carboxamide] the same measures were 72 nM and 7680 nM.
For `C=CC(=O)N1CC[C@H](Nc2cnc3[nH]cc(C(=O)N[C@@H](C)COC)c3n2)[C@H](OC)C1` (single isomer, unassigned) [Example 356] the same measures were 4.07 nM and 831 nM.
Consider `C=CC(=O)N1CCC(Oc2cnc3[nH]cc(C(=O)NC4CCCC(F)(F)C4)c3c2)CC1` (stereo not drawn) [Example 339, 5-[(1-acryloylpiperidin-4-yl)oxy]-N-(3,3-difluorocyclohexyl)-1H-pyrrolo[2,3-b]pyridine-3-carboxamide], for which the results for the IC50 in assay [1] and in assay [2] were 16.5 nM and 2700 nM, respectively.
Taken in the same sequence, the figures for `C=CC(=O)N1CCC(Oc2cnc3[nH]cc(C(=O)NCc4cccc(F)c4)c3c2)CC1` [Example 340, 5-[(1-acryloylpiperidin-4-yl)oxy]-N-(3-fluorobenzyl)-1H-pyrrolo[2,3-b]pyridine-3-carboxamide] were 30 nM and 3470 nM.
Taken in the same sequence, the figures for `C=CC(=O)N1CCN(c2cnc3[nH]cc(C(=O)N[C@H](CO)CCC)c3n2)CC1(C)C` [Example 161, 2-(4-acryloyl-3,3-dimethylpiperazin-1-yl)-N-[(2S)-1-hydroxypentan-2-yl] 5H-pyrrolo[2,3-b]pyrazine-7-carboxamide] were 7.35 nM and 1120 nM.
For `C=CC(=O)N1CCN(c2cnc3[nH]cc(C(=O)N[C@@H](CO)c4ccc(F)cc4)c3n2)CC1(C)C` [Example 146, 2-(4-acryloyl-3,3-dimethylpiperazin-1-yl)-N-[(1R)-1-(4-fluorophenyl)-2-hydroxyethyl]-5H-pyrrolo[2,3-b]pyrazine-7-carboxamide] the same measures were 12.2 nM and 1370 nM.
Regarding `C=CC(=O)N1CC[C@@H](COc2cnc3[nH]cc(C(=O)N[C@@H](C)COC)c3n2)C1` (single isomer, unassigned) [Example 12], the half-maximal inhibitory concentration (IC50) in assay [1] stood at 5.28 nM; in assay [2], 766 nM.
Taken in the same sequence, the figures for `C=CC(=O)N1CCC(Oc2cnc3[nH]cc(C(=O)NCCC)c3c2)CC1` [Example 347, 5-[(1-acryloylpiperidin-4-yl)oxy]-N-propyl-1H-pyrrolo[2,3-b]pyridine-3-carboxamide] were 24.2 nM and 3080 nM.
Taken in the same sequence, the figures for `C=CC(=O)N1C[C@H](C)[C@H](Nc2cnc3[nH]cc(C(=O)NCCOC)c3n2)C1` [Example 264, 2-{[(3S,4S)-1-acryloyl-4-methylpyrrolidin-3-yl]amino}-N-(2-methoxyethyl)-5H-pyrrolo[2,3-b]pyrazine-7-carboxamide] were 2.41 nM and 479 nM.
Taken in the same sequence, the figures for `C=CC(=O)N1C[C@@H](C)[C@@H](Nc2cnc3[nH]cc(C(=O)NCC)c3n2)C1` (stereo in doubt) [Example 248, 2-[(1-acryloyl-4-methylpyrrolidin-3-yl)amino]-N-ethyl-5H-pyrrolo[2,3-b]pyrazine-7-carboxamide] were 48.7 nM and 5330 nM.
For `C=CC(=O)N1CC[C@@H](CNc2cnc3[nH]cc(C(=O)N[C@H](C)COC)c3n2)C1` (single isomer, unassigned) [Example 20], the figures for the IC50 in assay [1] and in assay [2] were 5.42 nM and 926 nM, respectively.
For `C=CC(=O)N1CCC(Oc2cnc3[nH]cc(C(=O)NCC4(O)CCCC[C@@H]4F)c3n2)CC1` (mixture of isomers) [Example 224, Racemic-2-[(1-acryloylpiperidin-4-yl)oxy]-N-{[(2S)-2-fluoro-1-hydroxycyclohexyl]methyl}-5H-pyrrolo[2,3-b]pyrazine-7-carboxamide] the same measures were 3.54 nM and 526 nM.
As to `C=CC(=O)N1CCC(COc2cnc3[nH]cc(C(=O)N[C@@H](C)COC)c3n2)C1` (mixture of isomers) [Example 10, Racemic-2-[(1-acryloylpyrrolidin-3-yl)methoxyl]-N-[(2S)-1-methoxypropan-2-yl]-5H-pyrrolo[2,3-b]pyrazine-7-carboxamide], the concentration for half-maximal inhibition (IC50) in assay [1] was found to be 2.77 nM; in assay [2] it was 632 nM.
For `C=CC(=O)N1CCN(c2cnc3[nH]cc(C(=O)NC(CO)c4ccccc4F)c3n2)CC1(C)C` (racemic) [Example 154, Racemic-2-(4-acryloyl-3,3-dimethylpiperazin-1-yl)-N-[1-(2-fluorophenyl)-2-hydroxyethyl]-5H-pyrrolo[2,3-b]pyrazine-7-carboxamide] the same measures were 4.68 nM and 590 nM.
Taken in the same sequence, the figures for `C=CC(=O)N1CCN(c2cnc3[nH]cc(C(=O)N[C@H](CO)[C@@H](C)CC)c3n2)CC1(C)C` [Example 145, 2-(4-acryloyl-3,3-dimethylpiperazin-1-yl)-N-[(2S,3S)-1-hydroxy-3-methylpentan-2-yl]-5H-pyrrolo[2,3-b]pyrazine-7-carboxamide] were 18.4 nM and 1930 nM.
Taken in the same sequence, the figures for `C=CC(=O)N1CCN(c2cnc3[nH]cc(C(=O)NC(CO)c4cccc(F)c4)c3n2)CC1(C)C` (racemic) [Example 136, Racemic-2-(4-acryloyl-3,3-dimethylpiperazin-1-yl)-N-[1-(3-fluorophenyl)-2-hydroxyethyl]-5H-pyrrolo[2,3-b]pyrazine-7-carboxamide] were 5.82 nM and 632 nM.
For the molecule `C=CC(=O)N1CCC(Oc2cnc3[nH]cc([C@H](C)O)c3n2)CC1` (single isomer, unassigned) [Example 118], the IC50 turned out to be 16.1 nM in assay [1] and 1890 nM in assay [2].
Turning to `C=CC(=O)N1CCN(c2cnc3[nH]cc(C(=O)N[C@@H]4COC[C@@H]4n4cc(F)cn4)c3n2)CC1(C)C` [Example 159, 2-(4-acryloyl-3,3-dimethylpiperazin-1-yl)-N-[(3S,4R)-4-(4-fluoro-1H-pyrazol-1-yl)tetrahydrofuran-3-yl]-5H-pyrrolo[2,3-b]pyrazine-7-carboxamide], the 50% inhibitory concentration (IC50) in assay [1] amounted to 6.31 nM; in assay [2], 865 nM.
Taken in the same sequence, the figures for `C=CC(=O)N1CCC(Oc2cnc3[nH]cc(C(=O)NCC4(O)CCC(C)C4)c3n2)CC1` (racemic) [Example 201, Racemic-2-[(1-acryloylpiperidin-4-yl)oxy]-N-[(1-hydroxy-3-methylcyclopentyl)methyl]-5H-pyrrolo[2,3-b]pyrazine-7-carboxamide] were 3.62 nM and 411 nM.
On to `C#CCOCCc1c[nH]c2ncnc(N[C@@H]3CC[C@H](C)N(C(=O)C=C)C3)c12` [Example 131, 1-[(2S,5R)-2-Methyl-5-({5-[2-(prop-2-yn-1-yloxy)ethyl]-7H-pyrrolo[2,3-d]pyrimidin-4-yl}amino)piperidin-1-yl]prop-2-en-1-one], for which the results for the IC50 in assay [1] and in assay [2] were 0.182 nM and 33 nM, respectively.
Taken in the same sequence, the figures for `C=CC(=O)N1CCC(Oc2cnc3[nH]cc(-c4ncn(CC)n4)c3n2)CC1` [Example 125, 1-(4-{[7-(1-Ethyl-1H-1,2,4-triazol-3-yl)-5H-pyrrolo[2,3-b]pyrazin-2-yl]oxy}piperidin-1-yl)prop-2-en-1-one] were 7.82 nM and 1880 nM.
Taken in the same sequence, the figures for `C=CC(=O)N1CCC(Oc2cnc3[nH]cc(C(=O)NCc4ccccc4)c3c2)CC1` [Example 342, 5-[(1-acryloylpiperidin-4-yl)oxy]-N-benzyl-1H-pyrrolo[2,3-b]pyridine-3-carboxamide] were 26.4 nM and 2630 nM.
